“Also recorded” adds a separate entry of the source.

Series [1] deals with Matrix Metalloproteinase-9 (MMP-9) mRNA. The experiment in a line: MMP-9 mRNA in E. coli-treated HBE cells (dysbiosis model of lung epithelial cells), qRT-PCR. The note with it: 4 hours at 37° C. In kind it is cell-based, human. The procedure:
In FIG. 2, human primary epithelial (HBE) cells were seeded on a 6 well plate with 4×10^5 cells in each well. 16 hours later, the medium was changed to fresh DULBECCO'S Modified Eagle Medium/Nutrient Mixture F-12 (DMEM/F12) without antibiotic, and E. coli was added to the cells at a final concentration of 5.0×10^7 E. coli cells/ml. L(+) Lactic acid was added together with E. coli at a final lactic acid concentration of 5 mM, 10 mM, or 20 mM. The cells were incubated at 37° C. for 4 hours and then harvested with QIAZOL reagent. RNA was extracted according to the QIAZOL protocol. The level of Matrix Metalloproteinase-9 (MMP-9) mRNA was measured by quantitative real-time PCR (qRT-PCR). In FIG. 5, human bronchial epithelial (HBE) cells were seeded on a 6 well plate with 4×10^5 cells in each well. 16 hours later, the medium was changed to fresh DULBECCO'S Modified Eagle Medium/Nutrient Mixture F-12 (DMEM/F12) without antibiotic, and E. coli was added to the cells at a final concentration of 5.0×10^7 E. coli cells/ml. D(−) Lactic acid was added together with E. coli at a final lactic acid concentration of 0.25 ug/mL, 0.5 ug/mL, or 2 μg/mL. The cells were incubated at 37° C. for 4 hours and then harvested with QIAZOL reagent. RNA was extracted according to the QIAZOL protocol. The level of Matrix Metalloproteinase-9 (MMP-9) mRNA was measured by quantitative real-time PCR (qRT-PCR).
A general note: Quantitative PCR measures a nucleic acid by following its amplification.

For another series, the system named is MMP-9 mRNA. The experiment in a line: MMP-9 mRNA in A549 NSCLC adenocarcinoma cells inoculated with E. coli, real-time qPCR. It counts as cell-based. The following applies: 0.25 μg to 4 ug L-LA, 4 hours at 37° C. The procedure: In FIG. 4, 2×10^5 A549 cells were seeded in 500 μL growth medium per each well of a 24-well plate. Cells were treated with: (1) 2 uL PBS (control), (2) 5×10^8 E. coli cells (E. coli), (3) or 5×10*8 cells E. coli with 0.25 ug, 0.5 ug, 1 ug, 2 ug, or 4 ug L-lactic acid. The cells were incubated for 4 hours at 37° C. Cells were harvested, RNA was extracted with an RNA extraction kit, the concentration of total RNA was measured, cDNA was obtained using a High-Capacity cDNA Reverse Transcription Kit, and then a TAQMAN real-time qPCR protocol was performed on the cDNA.

Series [2] has as its system Matrix Metalloproteinase-9 (MMP-9) mRNA. Kind of series: MMP-9 mRNA in Caco-2 intestinal epithelial cells inoculated with E. coli, qRT-PCR. It counts as cell-based, human. The note with it: Caco-2 cells inoculated with E. coli; L(+) lactic acid 1.5 mM, 3 mM or 6 mM; 4 hours at 37° C. On the procedure: In FIG. 3, human intestinal epithelial cells (IECs) from the Caco-2 cell line were seeded on a 6 well plate with 4×10^5 cells in each well. 16 hours later, the medium was changed to fresh DULBECCO'S Modified Eagle Medium/Nutrient Mixture F-12 (DMEM/F12) without antibiotic, and E. coli was added to the cells at a final concentration of 5.0×10^7 E. coli cells/ml. L(+) Lactic acid was added together with E. coli at a final lactic acid concentration of 1.5 mM, 3 mM, or 6 mM. The cells were incubated at 37° C. for 4 hours and then harvested with QIAZOL reagent. RNA was extracted according to the QIAZOL protocol. The level of Matrix Metalloproteinase-9 (MMP-9) mRNA was measured by quantitative real-time PCR (qRT-PCR).

The conditions of series [3]: pure water; cited from earlier work.

In the case of `C[C@@H](O)C(=O)O` [D-lactic acid], in series [1] (HBE cells inoculated with E. coli, 0.25 μg to 2 ug D-LA), the “MMP-9 mRNA levels” value is reported as “no statistical difference”. For `C[C@H](O)C(=O)O` [L-lactic acid], the “MMP-9 mRNA levels” value in series [1] (HBE cells treated with E. coli, L(+) lactic acid 5 mM, 10 mM or 20 mM) is recorded as “MMP-9 reduction; also recorded: decreased”; in the series on MMP-9 mRNA it was “decreased”; in series [2] it was “decreased”. Regarding “Polyoxyethylene (20) sorbitan monooleate [polysorbate 80]”, the critical micelle concentration in series [3] was 0.012 mM.

These data come from patent US20250041214A1, “INHALABLE OR INGESTIBLE LACTIC ACID COMPOSITIONS FOR THE TREATMENT OF CHRONIC LUNG DISEASE” (Alveolus Bio, Inc., priority 2021, published 2025).
